In ChEMBL document CHEMBL3046001, “4-Thiazolidinone and 1-thia-3,4,9-triaza fluorene conjugates: synthesis, characterization and antimicrobial screening” (2013):
Values after ≈ are worked out from the molar mass of the structure shown. Active and inactive are the calls of the source. The calls are words filed in the database; no cut-off is given here.

Assays:
[1] = test system: Pseudomonas aeruginosa; experiment: Antibacterial activity against Pseudomonas aeruginosa MTCC 424 assessed as growth inhibition at 500 ug/mL after 48 hr by agar diffusion method; assay type: functional; conditions: MTCC 424, 48 h, read-out: DIZ
[2] = test system: Pseudomonas aeruginosa; experiment: Antibacterial activity against Pseudomonas aeruginosa MTCC 424 assessed as growth inhibition at 1000 ug/mL after 48 hr by agar diffusion method; assay type: functional; conditions: MTCC 424, 48 h, read-out: DIZ
[3] = test system: Escherichia coli; experiment: Antibacterial activity against Escherichia coli MTCC 1573 assessed as growth inhibition at 100 ug/mL after 48 hr by agar diffusion method; assay type: functional; conditions: for zone of inhibition at 100 µg/mL: MTCC 1573, 48 h, read-out: DIZ
[4] = test system: Bacillus pumilus; experiment: Antibacterial activity against Bacillus pumilus MTCC 1456 assessed as growth inhibition at 500 ug/mL after 48 hr by agar diffusion method; assay type: functional; conditions: MTCC 1456, 48 h, read-out: DIZ
[5] = test system: Bacillus subtilis; experiment: Antibacterial activity against Bacillus subtilis MTCC 441 assessed as growth inhibition at 500 ug/mL after 48 hr by agar diffusion method; assay type: functional; conditions: MTCC 441, 48 h, read-out: DIZ
[6] = test system: Pseudomonas fluorescens; experiment: Antibacterial activity against Pseudomonas fluorescens MTCC 2421 assessed as growth inhibition after 24 hr by tube dilution method; assay type: functional; conditions: MTCC 2421, 24 h
[7] = test system: Aspergillus niger; experiment: Antifungal activity against Aspergillus niger MTCC 2546 assessed as growth inhibition after 24 hr by tube dilution method; assay type: functional; conditions: MTCC 2546, 24 h
[8] = test system: Staphylococcus aureus; experiment: Antibacterial activity against Staphylococcus aureus MTCC 1430 assessed as growth inhibition at 100 ug/mL after 48 hr by agar diffusion method; assay type: functional, organism-based
[9] = test system: Escherichia coli; experiment: Antibacterial activity against Escherichia coli MTCC 1573 assessed as growth inhibition at 500 ug/mL after 48 hr by agar diffusion method; assay type: functional; conditions: MTCC 1573, 48 h, read-out: DIZ
[10] = test system: Pseudomonas fluorescens; experiment: Antibacterial activity against Pseudomonas fluorescens MTCC 2421 assessed as growth inhibition at 1000 ug/mL after 48 hr by agar diffusion method; assay type: functional; conditions: MTCC 2421, 48 h, read-out: DIZ
[11] = test system: Aspergillus niger; experiment: Antifungal activity against Aspergillus niger MTCC 2546 assessed as growth inhibition at 1000 ug/mL after 48 hr by agar diffusion method; assay type: functional; conditions: MTCC 2546, 48 h, read-out: DIZ
[12] = test system: Pseudomonas aeruginosa; experiment: Antibacterial activity against Pseudomonas aeruginosa MTCC 424 assessed as growth inhibition at 100 ug/mL after 48 hr by agar diffusion method; assay type: functional; conditions: MTCC 424, 48 h, read-out: DIZ
[13] = test system: Bacillus subtilis; experiment: Antibacterial activity against Bacillus subtilis MTCC 441 assessed as growth inhibition at 1250 ug/mL after 48 hr by agar diffusion method; assay type: functional; conditions: MTCC 441, 48 h, read-out: DIZ
[14] = test system: Micrococcus luteus; experiment: Antibacterial activity against Micrococcus luteus MTCC 1538 assessed as growth inhibition at 1250 ug/mL after 48 hr by agar diffusion method; assay type: functional; conditions: MTCC 1538, 48 h, read-out: DIZ
[15] = test system: Pseudomonas aeruginosa; experiment: Antibacterial activity against Pseudomonas aeruginosa MTCC 424 assessed as growth inhibition after 24 hr by tube dilution method; assay type: functional; conditions: MTCC 424, 24 h
[16] = test system: Penicillium chrysogenum; experiment: Antifungal activity against Penicillium chrysogenum MTCC 161 assessed as growth inhibition at 750 ug/mL after 48 hr by agar diffusion method; assay type: functional; conditions: MTCC 161, 48 h, read-out: DIZ
[17] = test system: Micrococcus luteus; experiment: Antibacterial activity against Micrococcus luteus MTCC 1538 assessed as growth inhibition at 500 ug/mL after 48 hr by agar diffusion method; assay type: functional; conditions: MTCC 1538, 48 h, read-out: DIZ
[18] = test system: Aspergillus niger; experiment: Antifungal activity against Aspergillus niger MTCC 2546 assessed as growth inhibition at 750 ug/mL after 48 hr by agar diffusion method; assay type: functional; conditions: MTCC 2546, 48 h, read-out: DIZ
[19] = test system: Pseudomonas fluorescens; experiment: Antibacterial activity against Pseudomonas fluorescens MTCC 2421 assessed as growth inhibition at 250 ug/mL after 48 hr by agar diffusion method; assay type: functional; conditions: MTCC 2421, 48 h, read-out: DIZ
[20] = test system: Penicillium chrysogenum; experiment: Antifungal activity against Penicillium chrysogenum MTCC 161 assessed as growth inhibition at 100 ug/mL after 48 hr by agar diffusion method; assay type: functional, organism-based
[21] = test system: Micrococcus luteus; experiment: Antibacterial activity against Micrococcus luteus MTCC 1538 assessed as growth inhibition at 750 ug/mL after 48 hr by agar diffusion method; assay type: functional; conditions: MTCC 1538, 48 h, read-out: DIZ
[22] = test system: Penicillium chrysogenum; experiment: Antifungal activity against Penicillium chrysogenum MTCC 161 assessed as growth inhibition at 1250 ug/mL after 48 hr by agar diffusion method; assay type: functional; conditions: MTCC 161, 48 h, read-out: DIZ
[23] = test system: Bacillus subtilis; experiment: Antibacterial activity against Bacillus subtilis MTCC 441 assessed as growth inhibition at 1000 ug/mL after 48 hr by agar diffusion method; assay type: functional; conditions: MTCC 441, 48 h, read-out: DIZ
[24] = test system: Aspergillus niger; experiment: Antifungal activity against Aspergillus niger MTCC 2546 assessed as growth inhibition at 1250 ug/mL after 48 hr by agar diffusion method; assay type: functional; conditions: MTCC 2546, 48 h, read-out: DIZ

| Compound | MIC [6] | MIC [7] | MIC [15] | zone of inhibition at 500 µg/mL [1] | zone of inhibition at 1000 µg/mL [2] | zone of inhibition at 500 µg/mL [4] | zone of inhibition at 500 µg/mL [5] | growth inhibition (GI) [8] | zone of inhibition at 500 µg/mL [9] | zone of inhibition at 1000 µg/mL [10] | zone of inhibition at 1000 µg/mL [11] | zone of inhibition at 100 µg/mL [12] | zone of inhibition at 1250 µg/mL [13] | zone of inhibition at 1250 µg/mL [14] | zone of inhibition at 750 µg/mL [16] | zone of inhibition at 500 µg/mL [17] | zone of inhibition at 750 µg/mL [18] | zone of inhibition at 250 µg/mL [19] | growth inhibition (GI) [20] | zone of inhibition at 750 µg/mL [21] | also measured |
| --- | --- | --- | --- | --- | --- | --- | --- | --- | --- | --- | --- | --- | --- | --- | --- | --- | --- | --- | --- | --- | --- |
| O=C1CSC(c2cccc3ccccc23)N1c1nnc2c3cc(Cl)ccc3nc-2s1 (centres undefined) | 40 µg/mL (≈ 89.1 µM) | 150 µg/mL (≈ 334 µM) | 40 µg/mL (≈ 89.1 µM) | 12 mm | 15 mm | 13 mm | 11 mm | inactive | 13 mm | 20 mm | 15 mm | 8 mm | 20 mm | 20 mm | 15 mm | 8 mm | 13 mm | 11 mm | inactive | 12 mm | zone of inhibition at 100 µg/mL [3]: 7 mm; zone of inhibition at 1250 µg/mL [22]: 18 mm; zone of inhibition at 1000 µg/mL [23]: 18 mm; zone of inhibition at 1250 µg/mL [24]: 18 mm |
| CC1SCC(=O)N1c1nnc2c3cc(Cl)ccc3nc-2s1 (centres undefined) | 150 µg/mL (≈ 445 µM) | 250 µg/mL (≈ 742 µM) | 50 µg/mL (≈ 148 µM) | 14 mm | 18 mm | 12 mm | 15 mm | inactive | 14 mm | 15 mm | 15 mm | 7 mm | 21 mm | 19 mm | 14 mm | 10 mm | 13 mm | 7 mm | inactive | 14 mm | zone of inhibition at 100 µg/mL [3]: 9 mm; zone of inhibition at 1250 µg/mL [22]: 20 mm; zone of inhibition at 1000 µg/mL [23]: 19 mm; zone of inhibition at 1250 µg/mL [24]: 17 mm |
| O=C1CSC(c2ccccn2)N1c1nnc2c3ccccc3nc-2s1 (centres undefined) | 50 µg/mL (≈ 137 µM) | 150 µg/mL (≈ 410 µM) | 30 µg/mL (≈ 82.1 µM) | 13 mm | 18 mm | 15 mm | 12 mm | inactive | 13 mm | 18 mm | 15 mm | 7 mm | 18 mm | 17 mm | 13 mm | 11 mm | 14 mm | 10 mm | inactive | 14 mm | zone of inhibition at 100 µg/mL [3]: 7 mm; zone of inhibition at 1250 µg/mL [22]: 17 mm; zone of inhibition at 1000 µg/mL [23]: 15 mm; zone of inhibition at 1250 µg/mL [24]: 17 mm |

More lines, in order of falling MIC [6], values ahead:

| MIC [6] | MIC [7] | MIC [15] | Compound | zone of inhibition at 500 µg/mL [1] | zone of inhibition at 1000 µg/mL [2] | zone of inhibition at 500 µg/mL [4] | zone of inhibition at 500 µg/mL [5] | growth inhibition (GI) [8] | zone of inhibition at 500 µg/mL [9] | zone of inhibition at 1000 µg/mL [10] | zone of inhibition at 1000 µg/mL [11] | zone of inhibition at 100 µg/mL [12] | zone of inhibition at 1250 µg/mL [13] | zone of inhibition at 1250 µg/mL [14] | zone of inhibition at 750 µg/mL [16] | zone of inhibition at 500 µg/mL [17] | zone of inhibition at 750 µg/mL [18] | zone of inhibition at 250 µg/mL [19] | growth inhibition (GI) [20] | zone of inhibition at 750 µg/mL [21] | also measured |
| --- | --- | --- | --- | --- | --- | --- | --- | --- | --- | --- | --- | --- | --- | --- | --- | --- | --- | --- | --- | --- | --- |
| 50 µg/mL (≈ 125 µM) | 200 µg/mL (≈ 500 µM) | 30 µg/mL (≈ 75 µM) | O=C1CSC(c2ccccn2)N1c1nnc2c3cc(Cl)ccc3nc-2s1 (centres undefined) | 13 mm | 18 mm | 15 mm | 9 mm | inactive | 12 mm | 17 mm | 18 mm | 7 mm | 22 mm | 19 mm | 15 mm | 8 mm | 15 mm | 8 mm | inactive | 12 mm | growth inhibition (GI) [3]: inactive; zone of inhibition at 1250 µg/mL [22]: 20 mm; zone of inhibition at 1000 µg/mL [23]: 19 mm; zone of inhibition at 1250 µg/mL [24]: 20 mm |
| 40 µg/mL (≈ 96.5 µM) | 250 µg/mL (≈ 603 µM) | 40 µg/mL (≈ 96.5 µM) | O=C1CSC(c2cccc3ccccc23)N1c1nnc2c3ccccc3nc-2s1 (centres undefined) | 13 mm | 17 mm | 11 mm | 13 mm | inactive | 12 mm | 19 mm | 15 mm | 7 mm | 20 mm | 16 mm | 10 mm | 8 mm | 10 mm | 10 mm | inactive | 11 mm | zone of inhibition at 100 µg/mL [3]: 8 mm; zone of inhibition at 1250 µg/mL [22]: 15 mm; zone of inhibition at 1000 µg/mL [23]: 17 mm; zone of inhibition at 1250 µg/mL [24]: 19 mm |
| 30 µg/mL (≈ 99.2 µM) | 250 µg/mL (≈ 827 µM) | 30 µg/mL (≈ 99.2 µM) | CC1SCC(=O)N1c1nnc2c3ccccc3nc-2s1 (centres undefined) | 12 mm | 20 mm | 12 mm | 15 mm | inactive | 13 mm | 21 mm | 14 mm | 8 mm | 22 mm | 19 mm | 12 mm | 12 mm | 11 mm | 10 mm | inactive | 14 mm | zone of inhibition at 100 µg/mL [3]: 7 mm; zone of inhibition at 1250 µg/mL [22]: 17 mm; zone of inhibition at 1000 µg/mL [23]: 20 mm; zone of inhibition at 1250 µg/mL [24]: 17 mm |
